Test results: ChEMBL document CHEMBL1201862, “PubChem BioAssay data set” (2004)
Active and inactive are the calls of the source. Rule as the data show it, for most assays here: actives have a measured EC50 and inactives only a lower limit.

What was measured:
[1] = target: T1, RNA-binding protein pos-1 (Caenorhabditis elegans, UniProt G5EF15); assay: inhibitors of POS-1/mex-3 RNA binding, dose response, biochemical, fluorescence polarization (AID 1964);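 also: purified POS-1 fused to maltose binding protein made in E. coli; potency of compounds blocking POS-1 binding to fluorescent RNA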
T1 sequence (G5EF15 whole entry): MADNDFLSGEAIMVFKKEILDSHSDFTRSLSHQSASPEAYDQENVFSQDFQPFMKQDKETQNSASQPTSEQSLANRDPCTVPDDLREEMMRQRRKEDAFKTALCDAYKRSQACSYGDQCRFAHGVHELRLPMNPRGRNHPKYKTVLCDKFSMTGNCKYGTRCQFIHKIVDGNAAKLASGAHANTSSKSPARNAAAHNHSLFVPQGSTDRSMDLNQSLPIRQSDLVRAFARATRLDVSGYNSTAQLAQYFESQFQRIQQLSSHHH

[2] = Luminescence Cell-Based Dose Confirmation HTS to Identify Inhibitors of Platelet Dense Granule Release. [Related pubchem assays: 1663 (Primary HTS), 1678 (Summary of Project)]; assay type: functional
[3] = Luminescence-based dose response cell-based high throughput screening assay for cytotoxic compounds using the IEC-6 intestinal epithelial cell line. [Related pubchem assays: 1858 (Summary AID.), 1825 (Counterscreen.), 1907 (Confirmation screen.)]; assay type: functional
[4] = target: Beta-galactosidase (Escherichia coli, UniProt Q8VNN2); assay type: functional
Beta-galactosidase, sequence (Q8VNN2 whole entry): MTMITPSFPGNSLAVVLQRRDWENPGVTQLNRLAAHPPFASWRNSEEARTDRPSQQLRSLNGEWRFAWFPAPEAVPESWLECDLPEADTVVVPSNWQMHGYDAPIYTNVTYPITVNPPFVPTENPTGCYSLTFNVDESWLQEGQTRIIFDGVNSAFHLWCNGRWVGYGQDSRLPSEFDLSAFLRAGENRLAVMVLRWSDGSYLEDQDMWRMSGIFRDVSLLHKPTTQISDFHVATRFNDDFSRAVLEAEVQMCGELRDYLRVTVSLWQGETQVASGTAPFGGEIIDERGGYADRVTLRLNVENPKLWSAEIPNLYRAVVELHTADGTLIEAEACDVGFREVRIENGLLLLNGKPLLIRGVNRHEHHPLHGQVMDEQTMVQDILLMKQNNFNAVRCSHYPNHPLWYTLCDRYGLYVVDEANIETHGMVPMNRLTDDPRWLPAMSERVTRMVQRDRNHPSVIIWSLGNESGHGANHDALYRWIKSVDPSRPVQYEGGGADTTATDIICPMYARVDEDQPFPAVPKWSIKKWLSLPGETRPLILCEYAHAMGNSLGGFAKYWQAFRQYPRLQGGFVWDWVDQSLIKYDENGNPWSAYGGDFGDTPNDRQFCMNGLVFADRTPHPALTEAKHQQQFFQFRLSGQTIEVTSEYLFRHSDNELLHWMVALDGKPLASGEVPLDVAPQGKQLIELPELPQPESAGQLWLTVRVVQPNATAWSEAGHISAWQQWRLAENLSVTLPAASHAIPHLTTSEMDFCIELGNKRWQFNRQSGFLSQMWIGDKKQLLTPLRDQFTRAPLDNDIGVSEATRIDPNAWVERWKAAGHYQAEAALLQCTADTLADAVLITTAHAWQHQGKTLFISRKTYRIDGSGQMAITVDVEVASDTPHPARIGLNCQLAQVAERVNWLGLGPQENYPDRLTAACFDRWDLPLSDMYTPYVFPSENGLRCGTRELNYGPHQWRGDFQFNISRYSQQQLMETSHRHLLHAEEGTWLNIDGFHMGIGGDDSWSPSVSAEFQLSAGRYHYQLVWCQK

[5] = Luminescence Cell-Based Dose Response HTS to Identify Inhibitors of 5'UTR Stem-Loop Driven Prion Protein mRNA Translation in H4 Neuroglioblastoma Cells. [Related pubchem assays: 1827 (Project Summary), 1813 (Primary HTS)]; assay type: functional
[6] = inhibitors of firefly luciferase expression or activity, dose response, H4 neuroglioma cells, luminescence (AID 1990); assay type: functional, cell-based
[7] = control 3'UTR Renilla luciferase suppression, dose response, counter-screen for Shn3 inhibitor project, cell-based, Clone20-Shn3RL, cherry-picked (AID 624133); assay type: functional
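For IC50 in this document: cell viability measured after two days of compound exposure.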

Compound | EC50 [1] | EC50 [2] | IC50 [3] | EC50 [4] | EC50 [5] | EC50 [6] | AC50 [7]
Cc1ccc(S(=O)(=O)/N=C2\C=C(Nc3cccc(C(=O)O)c3)C(=O)c3ccccc32)c(C)c1 | 68.6 µM (active) |  |  |  |  |  | 
COc1ccc(NC(=O)/C(Cl)=C(/Cl)[S+]([O-])Cc2ccccc2)cn1 (configuration not stated) |  | 6.34 µM (active) | 1.27 µM (active) | > 31.5 µM (inactive) | 0.998 µM (active) | 5.93 µM (active) | < 0.26 µM (active)
